In PubChem BioAssay (NCI):
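Method: 48-hour compound exposure of cells in 96-well plates, five concentrations, linear interpolation of endpoints. TGI denotes the concentration required for complete inhibition of growth.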

Experiments:
Test in all cases: growth of human tumour cells (NCI), 48 h
UO-31 renal = system: UO-31 renal
SK-OV-3 ovarian = system: SK-OV-3 ovarian
KM12 colon = system: KM12 colon
ACHN renal = system: ACHN renal
IGROV1 ovarian = system: IGROV1 ovarian
EKVX NSCLC = system: EKVX NSCLC
NCI-H522 lung = system: NCI-H522 lung
NCI-H23 lung = system: NCI-H23 lung
UACC-257 melanoma = system: UACC-257 melanoma
HCT-116 colon = system: HCT-116 colon

Row | SMILES | TGI (UO-31 renal) [µM] | TGI (SK-OV-3 ovarian) [µM] | TGI (KM12 colon) [µM] | TGI (ACHN renal) [µM] | TGI (IGROV1 ovarian) [µM] | TGI (EKVX NSCLC) [µM] | TGI (NCI-H522 lung) [µM] | TGI (NCI-H23 lung) [µM] | TGI (UACC-257 melanoma) [µM] | TGI (HCT-116 colon) [µM]
1 | Cc1ccc(C2(N3CCOCC3)OC(C)(C)c3cccc4cccc2c34)cc1 (stereo not given) | 31 | 31.2 | 57.2 | 31.6 | 35.2 | 29.2 | 30.8 | 34.9 | 34.6 | 36.9
2 | C=C(C)[C@@H]1CC[C@]2(C(=O)OC3OC(COC4OC(CO)C(OC5OC(C)C(O)C(O)C5O)C(O)C4O)C(O)C(O)C3O)CC[C@]3(C)[C@H](CC[C@@H]4[C@@]5(C)CC[C@H](O)[C@@](C)(CO)[C@@H]5CC[C@]43C)[C@@H]12 (stereo not given in full) | > 10 | > 8.62 | > 10 | > 10 | > 10 | > 10 | 9.56 | > 5.57 | > 10 | > 6.75
3 | COc1ccc(C[C@H]2COC(=O)[C@@H]2Cc2ccccc2)cc1OC |  | > 100 | > 100 | > 100 | > 100 | > 100 |  | > 100 | > 100 | > 100
4 | CC(=O)c1cc(S(=O)(=O)c2ccc(O)c(C(C)=O)c2)ccc1O | > 100 | > 100 | > 100 | > 100 | > 100 | > 100 | > 100 | > 100 | > 100 | > 100
5 | COc1ccc(C(=O)/C=C/c2ccc(OCCCOc3ccc(/C=C/C(=O)c4ccc(OC)c(OC)c4)cc3)cc2)cc1OC | > 100 | > 100 | > 100 | > 100 | > 100 | > 100 |  |  | > 100 | > 100
6 | Cn1cnc(/C=C/C#N)c1 | > 100 | > 100 | > 100 | > 100 | > 100 | > 100 | > 100 | > 100 | > 100 | 
7 | NNc1nnc(-c2ccccc2)nc1Cc1ccccc1 | 31.6 | > 100 | > 100 | > 100 | > 100 | > 100 | > 100 | > 100 |  | > 100
8 | Cc1sc2nc3n(sc4nc5sc(C)c(C)c5c(=O)n43)c(=O)c2c1C | > 100 | > 100 | > 100 |  | > 100 | 98.4 | 32 | > 100 | > 100 | > 100
9 | COCCN(C(=O)c1ccccc1)C1CCC(=O)c2[nH]c3ccccc3c21 (stereo not given) | 25.2 | 29 | 21.9 | 30.4 | 13.6 | 25.7 | 6.93 | 36.9 | > 66.7 | 26.5
10 | CCn1c(SCc2nnc(Nc3ccccc3)s2)nc2ccccc2c1=O | 12.1 | 7.66 | > 48.9 | 9.16 | 15.7 | 17.3 | 7.63 | 19.4 | 51.9 | 3.97
11 | COC(C[C@H]1CCCC[C@]1(O)/C(=C\CO[Si](C(C)C)(C(C)C)C(C)C)Sc1ccccc1)OC | > 100 | > 100 | > 100 | > 100 | > 100 | > 100 | 39.6 | > 100 | > 100 | 85.1
12 | C/C=C\C(CC(=O)NCCc1c[nH]c2ccccc12)CC(=O)OC (stereo not given) | > 100 | > 100 | > 100 | > 100 | > 100 | > 100 | > 100 | > 100 | > 100 | > 100
13 | C/C(=N\NC(=O)c1ccncc1)c1cccc(C(F)(F)F)c1 | > 10 | > 10 | > 10 |  | > 10 | > 10 |  | > 10 | > 10 | 
14 | C=C(C)C(=O)O[C@H]1CC2(CO)O[C@@H]2CC/C(COC(C)=O)=C/C2OC(=O)C(=C)[C@@H]21 (stereo not given in full) | 59.4 | > 100 | > 100 | > 63.6 | > 100 | > 100 | 31.6 | > 100 | 43.1 | 39.4
15 | O=C1c2ccccc2C2(c3ccc(Cl)cc3)N[C@@H]3CCCC[C@@H]3N12 (stereo not given in full) | > 100 | > 100 | > 100 | > 100 | > 100 | > 100 |  | > 100 | > 100 | > 100
16 | COc1ccccc1NC(=O)CSC(N)=O |  | > 100 | > 100 | > 100 | > 100 | > 100 | > 100 | > 100 | > 100 | 36.6
17 | O=c1[nH]nc(N/N=C\c2ccc(Cl)cc2)c2ccccc12 | 38.7 | 34.6 | 52.3 | 37.8 | 37.2 | > 100 | 48 | 40.1 | 49.3 | 53.2
18 | CC(=O)OCC1(CNc2nc(N)ncc2C#N)CC(CCc2ccccc2)C1 (stereo not given) | > 100 |  | > 100 | > 100 | > 100 | > 100 | > 100 | > 100 | > 100 | > 100
19 | CCCOC1OC(CS(=O)(=O)O)C(OC(C)=O)C(OC(C)=O)C1OC(C)=O (stereo not given) | > 100 | > 100 | > 100 |  | > 100 |  |  | > 100 | > 100 | > 100
20 | c1ccc2c(c1)ccc1nc(-c3ccc4c(c3)OCO4)c3c(c12)CCC3 | > 100 | > 100 | > 100 | > 100 |  | > 100 |  | > 100 | > 100 | > 100
21 | O=C(O)c1cc(Nc2c(O)c3c(c(O)c2Cl)C(=O)C=CC3=O)ccc1O | > 10 | > 10 | > 10 | > 10 | > 10 | > 10 |  | > 10 | > 10 | > 10
22 | Cc1cc(C)c(C#N)c(SC(=S)NC(=O)c2ccccc2)n1 | > 100 |  | > 100 | > 100 | > 100 | > 100 | > 100 | > 100 | > 100 | > 100
